Values quoted from earlier work as cited in US8791093B2, “Pharmaceutical delivery systems for treatment of substance abuse and other addictions” (priority 2009, dated 2014).

What was measured:
[1] = biological target: T1, ALDH-II (Homo sapiens, UniProt P00352)
T1 sequence (P00352 1-501): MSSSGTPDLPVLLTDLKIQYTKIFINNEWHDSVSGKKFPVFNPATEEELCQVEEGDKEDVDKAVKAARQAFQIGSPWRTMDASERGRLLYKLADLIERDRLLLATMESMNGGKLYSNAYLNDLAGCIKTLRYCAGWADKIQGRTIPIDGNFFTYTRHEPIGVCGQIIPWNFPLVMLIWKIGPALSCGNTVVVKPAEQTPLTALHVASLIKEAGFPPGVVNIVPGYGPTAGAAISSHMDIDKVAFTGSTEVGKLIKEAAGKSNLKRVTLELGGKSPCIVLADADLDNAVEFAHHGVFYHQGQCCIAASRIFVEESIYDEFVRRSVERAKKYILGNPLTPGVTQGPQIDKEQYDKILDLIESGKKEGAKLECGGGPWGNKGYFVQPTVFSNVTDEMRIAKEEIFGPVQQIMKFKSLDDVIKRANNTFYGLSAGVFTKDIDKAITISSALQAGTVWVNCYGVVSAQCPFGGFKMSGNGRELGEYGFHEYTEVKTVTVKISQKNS

[2] = biological target: T2, ALDH-I (Homo sapiens, UniProt P05091)
T2 sequence (P05091 18-517): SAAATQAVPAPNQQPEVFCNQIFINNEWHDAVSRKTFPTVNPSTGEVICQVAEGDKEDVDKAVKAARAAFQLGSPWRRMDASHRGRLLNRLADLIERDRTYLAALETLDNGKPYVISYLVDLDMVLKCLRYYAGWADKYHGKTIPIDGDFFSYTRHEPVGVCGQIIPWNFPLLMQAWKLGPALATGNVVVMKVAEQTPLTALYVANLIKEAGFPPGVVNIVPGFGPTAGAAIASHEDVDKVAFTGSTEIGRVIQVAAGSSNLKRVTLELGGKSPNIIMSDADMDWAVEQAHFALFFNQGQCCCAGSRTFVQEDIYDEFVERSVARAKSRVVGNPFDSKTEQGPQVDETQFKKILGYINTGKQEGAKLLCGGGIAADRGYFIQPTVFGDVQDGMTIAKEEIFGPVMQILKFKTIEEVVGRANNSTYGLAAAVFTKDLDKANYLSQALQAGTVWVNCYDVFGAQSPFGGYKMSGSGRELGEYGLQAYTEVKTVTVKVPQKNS

inhibition of ALDH-II [1]: potent irreversible inhibitor
inhibition of ALDH-I [2]: only slightly
Compound: CCN(CC)C(=S)SSC(=S)N(CC)CC [Disulfiram, diethylcarbamothioylsulfanyl diethylaminomethanedithioate]
